What was measured:
NCI-H460 = test: Antiproliferative activity against human NCI-H460 cells assessed as reduction in cell growth by MTT assay; format: functional, cell-based
MDA-MB-231 = test: Antiproliferative activity against human MDA-MB-231 cells assessed as reduction in cell growth by MTT assay; format: functional, cell-based
NCI-H1299 = test: Antiproliferative activity against human NCI-H1299 cells assessed as reduction in cell growth by MTT assay; format: functional, cell-based
A549 [1] = test: Antiproliferative activity against human A549 cells assessed as reduction in cell growth by MTT assay; format: functional, cell-based
[2] = target: T1, Epidermal growth factor receptor (Homo sapiens, UniProt P00533); test: Inhibition of EGFR in human A549 cells measured after 30 hrs by ELISA; format: cell-based
T1 sequence (P00533 whole entry): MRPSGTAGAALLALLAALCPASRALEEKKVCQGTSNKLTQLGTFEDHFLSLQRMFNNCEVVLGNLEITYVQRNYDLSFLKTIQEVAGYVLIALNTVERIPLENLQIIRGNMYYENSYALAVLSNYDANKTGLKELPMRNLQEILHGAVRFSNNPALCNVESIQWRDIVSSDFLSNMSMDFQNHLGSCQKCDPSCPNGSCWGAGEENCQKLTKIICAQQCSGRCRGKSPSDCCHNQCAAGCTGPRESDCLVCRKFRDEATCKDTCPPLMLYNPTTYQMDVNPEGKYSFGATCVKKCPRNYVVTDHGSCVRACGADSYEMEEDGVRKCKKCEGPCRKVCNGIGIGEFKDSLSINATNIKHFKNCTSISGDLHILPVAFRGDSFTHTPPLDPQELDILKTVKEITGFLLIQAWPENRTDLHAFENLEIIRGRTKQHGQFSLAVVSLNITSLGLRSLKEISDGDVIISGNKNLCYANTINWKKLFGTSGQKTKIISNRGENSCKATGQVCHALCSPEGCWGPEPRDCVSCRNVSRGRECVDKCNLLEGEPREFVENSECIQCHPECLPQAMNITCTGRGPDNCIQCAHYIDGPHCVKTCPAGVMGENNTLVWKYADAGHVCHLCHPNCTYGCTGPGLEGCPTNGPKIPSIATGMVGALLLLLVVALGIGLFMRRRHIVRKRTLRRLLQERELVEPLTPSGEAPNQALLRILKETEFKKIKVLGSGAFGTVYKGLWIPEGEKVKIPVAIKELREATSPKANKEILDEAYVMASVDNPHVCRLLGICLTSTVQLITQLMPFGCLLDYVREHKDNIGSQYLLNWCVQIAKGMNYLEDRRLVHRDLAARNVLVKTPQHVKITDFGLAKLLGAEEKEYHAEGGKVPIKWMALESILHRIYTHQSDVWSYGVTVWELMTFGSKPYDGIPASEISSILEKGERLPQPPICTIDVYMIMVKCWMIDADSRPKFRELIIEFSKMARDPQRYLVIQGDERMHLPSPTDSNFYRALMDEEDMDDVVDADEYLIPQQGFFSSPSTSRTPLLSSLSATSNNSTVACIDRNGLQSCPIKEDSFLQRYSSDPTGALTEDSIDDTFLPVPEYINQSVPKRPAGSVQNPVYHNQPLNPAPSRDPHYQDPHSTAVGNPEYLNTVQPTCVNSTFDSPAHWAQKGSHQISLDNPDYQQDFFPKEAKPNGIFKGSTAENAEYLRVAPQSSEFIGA

MCF-10A = test: Cytotoxicity against human MCF-10A cells assessed as reduction in cell growth by MTT assay; format: cell-based
A549 [3] = test: Potency index, ratio of erlotinib IC50 to test compound IC50 for antiproliferative activity against human A549 cells assessed as reduction in cell growth by MTT assay; format: functional
[4] = target: T1, Epidermal growth factor receptor; test: Potency index, ratio of erlotinib IC50 to test compound IC50 for EGFR in human A549 cells measured after 30 hrs by ELISA; format: cell-based

Compound | IC50 (NCI-H460) [nM] | IC50 (MDA-MB-231) [nM] | IC50 (NCI-H1299) [nM] | IC50 (A549 [1]) [nM] | IC50 [2] [nM] | IC50 (MCF-10A) [nM] | Ratio IC50 (A549 [3]) | Ratio IC50 [4]
C#Cc1cccc(Nc2ncnc3cc(OCCOC)c(OCCOC(=O)CCCCC[N+]4=C(/C=C/C5=C(Cl)C(=C/C=C6/N(CCCCCC(=O)O)c7ccc(Br)cc7C6(C)C)/CCC5)C(C)(C)c5cc(Br)ccc54)cc23)c1 | 13700 | 609 | 17600 | 7330 |  |  |  | 
C#Cc1cccc(Nc2ncnc3cc(OCCOC)c(OCCOC(=O)CCCCC[N+]4=C(/C=C/C5=C(Cl)C(=C/C=C6/N(CCCCCC(=O)O)c7ccc(OC)cc7C6(C)C)/CCC5)C(C)(C)c5cc(OC)ccc54)cc23)c1 | 2700 | 4230 | 2210 | 1960 |  |  |  | 
C#Cc1cccc(Nc2ncnc3cc(OCCOC)c(OCCOC(=O)CCCCC[N+]4=C(/C=C/C=C/C=C/C=C5/N(CCCC)c6ccc(OC)cc6C5(C)C)C(C)(C)c5cc(C)ccc54)cc23)c1 | 827 | 531 | 1350 | 678 |  |  |  | 
C#Cc1cccc(Nc2ncnc3cc(OCCOC)c(OCCOC(=O)CCCCC[N+]4=C(/C=C/C=C/C=C/C=C5/N(CCCCCC(=O)O)c6ccc(C)cc6C5(C)C)C(C)(C)c5cc(C)ccc54)cc23)c1 | 5650 | 6210 | 4150 | 2100 |  |  |  | 
C#Cc1cccc(Nc2ncnc3cc(OCCOC)c(OCCOC(=O)CCCCC[N+]4=C(/C=C/C5=C(Cl)C(=C/C=C6/N(CCCCCC(=O)O)c7ccccc7C6(C)C)/CCC5)C(C)(C)c5ccccc54)cc23)c1 | 15200 | 4310 | 6960 | 9040 |  |  |  | 
C#Cc1cccc(Nc2ncnc3cc(OCCOC)c(OCCOC(=O)CCCCC[N+]4=C(/C=C/C=C/C=C/C=C5/N(CCCC)c6ccc(OC)cc6C5(C)C)C(C)(C)c5ccccc54)cc23)c1 | 549 | 306 | 378 | 388 |  |  |  | 
C#Cc1cccc(Nc2ncnc3cc(OCCOC)c(OCCOC(=O)CCCCC[N+]4=C(/C=C/C=C/C=C/C=C5/N(CCCC)c6ccccc6C5(C)C)C(C)(C)c5cc(Br)ccc54)cc23)c1 | 655 | < 125 | 693 | 579 |  |  |  | 
C#Cc1cccc(Nc2ncnc3cc(OCCOC)c(OCCOC(=O)CCCCC[N+]4=C(/C=C/C=C/C=C/C=C5/N(CCCC)c6ccccc6C5(C)C)C(C)(C)c5cc(OC)ccc54)cc23)c1 | 2470 | < 125 | 680 | 3940 |  |  |  | 
CC(=O)O[C@H]1C(=O)[C@@]2(C)[C@H]([C@H](OC(=O)c3ccccc3)[C@]3(O)C[C@H](OC(=O)[C@H](O)[C@@H](NC(=O)c4ccccc4)c4ccccc4)C(C)=C1C3(C)C)[C@]1(OC(C)=O)CO[C@@H]1C[C@@H]2O [PACLITAXEL] | < 1 | < 25 | 5 | < 1 |  |  |  | 
C#Cc1cccc(Nc2ncnc3cc(OCCOC)c(OCCOC(=O)CCCCC[N+]4=C(/C=C/C=C/C=C/C=C5/N(CCCCCC(=O)O)c6ccc(OC)cc6C5(C)C)C(C)(C)c5cc(OC)ccc54)cc23)c1 | 5120 | 3300 | 14900 | 2590 |  |  |  | 
C#Cc1cccc(Nc2ncnc3cc(OCCOC)c(OCCOC(=O)CCCCC[N+]4=C(/C=C/C=C/C=C/C=C5/N(CCCCCC(=O)O)c6ccccc6C5(C)C)C(C)(C)c5ccccc54)cc23)c1 | 7250 | 1620 | 5140 | 1130 |  |  |  | 
C#Cc1cccc(Nc2ncnc3cc(OCCOC)c(OCCOC(=O)CCCCC[N+]4=C(/C=C/C=C/C=C/C=C5/N(CCCC)c6ccc(OC)cc6C5(C)C)C(C)(C)c5cc(Br)ccc54)cc23)c1 | 855 | 833 | 246 | 2080 |  |  |  | 
C#Cc1cccc(Nc2ncnc3cc(OCCOC)c(OCCOC(=O)CCCCC[N+]4=C(/C=C/C=C/C=C/C=C5/N(CCCC)c6ccc(OC)cc6C5(C)C)C(C)(C)c5cc(OC)ccc54)cc23)c1 | 217 | < 125 | 110 | 455 |  |  |  | 
C#Cc1cccc(Nc2ncnc3cc(OCCOC)c(OCCOC(=O)CCCCC[N+]4=C(/C=C/C=C/C=C/C=C5/N(CCCC)c6ccccc6C5(C)C)C(C)(C)c5cc(C)ccc54)cc23)c1 | 2120 | 313 | 1740 | 2070 |  |  |  | 
C#Cc1cccc(Nc2ncnc3cc(OCCOC)c(OCCOC(=O)CCCCC[N+]4=C(/C=C/C=C/C=C/C=C5/N(CCCC)c6ccccc6C5(C)C)C(C)(C)c5cc(C(F)(F)F)ccc54)cc23)c1 | 813 | 356 | 541 | 230 | 205 |  |  | 
C#Cc1cccc(Nc2ncnc3cc(OCCOC)c(OCCOC(=O)CCCCC[N+]4=C(/C=C/C5=C(Cl)C(=C/C=C6/N(CCCCCC(=O)O)c7ccc(C)cc7C6(C)C)/CCC5)C(C)(C)c5cc(C)ccc54)cc23)c1 | 816 | 3360 | 1550 | 2380 |  |  |  | 
C#Cc1cccc(Nc2ncnc3cc(OCCOC)c(OCCOC(=O)CCCCC[N+]4=C(/C=C/C=C/C=C/C=C5/N(CCCC)c6ccccc6C5(C)C)C(C)(C)c5ccccc54)cc23)c1 | 570 | < 125 | 2000 | 631 |  | 33200 |  | 
C#Cc1cccc(Nc2ncnc3cc(OCCOC)c(OCCOC(=O)CCCCC[N+]4=C(/C=C/C=C/C=C/C=C5/N(CCCC)c6ccc(OC)cc6C5(C)C)C(C)(C)c5cc(C(F)(F)F)ccc54)cc23)c1.[Br-] | 301 | 311 | 79 | 177 | 124 | 38600 | 14 | 14
